Assay results reported in patent publication US7879848B2, “Dipeptidyl Peptidase-IV inhibiting compounds, method of preparing the same, and pharmaceutical compositions containing the same as an active agent” (LG Life Sciences, Ltd., priority 2005, dated 2011).

Molecular target: T1, Dipeptidyl Peptidase-IV (DPP-IV) (Homo sapiens, UniProt P27487)
T1 construct: made in house
Assay: Measurement of DPP-IV Activity-Inhibiting Ability (fluorescent substrate Ac-Gly-Pro-AFC)
Format: biochemical
Settings: 25° C., 50 mmol HEPES (pH 7.4), DP-IV 7.1 nM, enzyme reaction for 1 hour
Description: Dipeptidyl Peptidase-IV (DPP-IV), known as serine protease, was obtained by a modification of the known method (Tanaka T. et al, Proc. Natl. Acad. Sci. USA, (1994) 91, 3082-3086), which comprises cloning, purification by use of Baculo-Virus and activation steps. DPP-IV was used to test the pharmaceutical efficacy of candidate inhibitors as follows. The cloned DP-IV was expressed in Baculo-Virus, which was purified by nickel column and then subjected to dialysis. The inhibitors synthesized in Examples were tested to determine the binding activity there of using a fluorescent substrate, Ac-Gly-Pro-AFC. Enzyme reactions were conducted for various concentrations of inhibitors, using 100 µM Ac-Gly-Pro-AFC at 25° C. in a buffer solution containing 50 mmol HEPES (pH 7.4), with the concentration of DP-IV being 7.1 nM. […] As the fluorescent spectrometer, Spectra MAX GeminiXS fluorescent spectrometer from Molecular Device Co. was used and the excitation frequency and emission frequency were set to 400 nm and 505 nm, respectively.

T1 sequence (P27487 whole entry): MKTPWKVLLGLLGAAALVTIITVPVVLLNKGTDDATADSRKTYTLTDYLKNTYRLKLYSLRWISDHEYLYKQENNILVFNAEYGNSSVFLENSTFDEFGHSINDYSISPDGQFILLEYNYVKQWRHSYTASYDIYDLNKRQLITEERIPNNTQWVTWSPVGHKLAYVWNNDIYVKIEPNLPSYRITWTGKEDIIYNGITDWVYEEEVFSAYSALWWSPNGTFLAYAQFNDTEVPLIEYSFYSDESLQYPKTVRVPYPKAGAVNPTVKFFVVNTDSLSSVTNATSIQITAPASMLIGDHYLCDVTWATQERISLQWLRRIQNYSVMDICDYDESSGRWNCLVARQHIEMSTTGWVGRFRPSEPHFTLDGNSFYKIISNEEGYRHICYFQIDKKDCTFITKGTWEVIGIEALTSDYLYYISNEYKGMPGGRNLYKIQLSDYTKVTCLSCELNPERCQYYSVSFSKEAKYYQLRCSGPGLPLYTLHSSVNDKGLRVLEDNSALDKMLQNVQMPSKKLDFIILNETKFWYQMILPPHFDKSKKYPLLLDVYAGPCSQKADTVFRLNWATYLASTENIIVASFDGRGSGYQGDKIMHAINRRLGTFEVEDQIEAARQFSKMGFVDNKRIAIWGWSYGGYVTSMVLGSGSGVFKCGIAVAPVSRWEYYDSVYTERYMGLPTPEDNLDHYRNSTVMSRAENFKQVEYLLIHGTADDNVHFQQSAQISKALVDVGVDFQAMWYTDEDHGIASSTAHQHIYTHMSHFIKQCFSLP

Row | IC50 | Compound
1 | 66 nM | CC1CN(C[C@@H](N)CC(=O)N2CCn3c(nnc3C(F)(F)F)C2)C(=O)CO1 (stereo partly drawn) [Ex. 16, 4-[2S-amino-4-oxo-4-(3-trifluoromethyl-5,6-dihydro-8H-[1,2,4]triazolo[4,3-a]pyrazin-7-yl)-butyl]-6-methyl-morpholin-3-one]
2 | 357 nM | C[C@H]1CN(C[C@@H](N)CC(=O)N2CCc3sc(C4CCOCC4)nc3C2)C(=O)CO1 [Ex. 48, (6S)-4-{(2R)-2-amino-4-oxo-4-[2-(tetrahydro-2H-pyran-4-yl)-6,7-dihydro[1,3]thiazolo[4,5,c]pyridin-5(4H)-yl]butyl}-6-methylmorpholine-3-one]
3 | 12 nM | N[C@@H](CC(=O)N1CCc2c(nc(-c3ccco3)nc2C(F)(F)F)C1)CN1CC(F)(F)CCC1=O [Ex. 65, 1-{(2S)-2-amino-4-[2-(2-furyl)-4-(trifluoromethyl)-5,8-dihydropyrido[3,4-d]pyrimidin-7(6H)-yl]-4-oxobutyl}-5,5-difluoropiperidin-2-one]
4 | 56 nM | CC1CCN(C[C@@H](N)CC(=O)N2CCc3c(nc(C(F)(F)F)nc3C(F)(F)F)C2)C(=O)C1 (stereo partly drawn) [Ex. 110, 1-{(2S)-2-amino-4-[2,4-bis(trifluoromethyl)-5,8-dihydropyrido[3,4-d]pyrimidin-7(6H)-yl]-4-oxobutyl}-4-methyloxopiperidin-2-one]
5 | 163 nM | C[C@H]1CN(C[C@@H](N)CC(=O)N2CCn3c(nnc3C(F)(F)F)C2)C(=O)CO1 [Ex. 78, (6S)-4-{(2S)-2-amino-4-oxo-4-[3-(trifluoromethyl)-5,6-dihydro[1,2,4]triazolo[4,3-a]pyrazin-7(8H)-yl]butyl}-6-methylmorpholine-3-one]
6 | 23 nM | CCc1nc2c(c(C(F)(F)F)n1)CCN(C(=O)C[C@H](N)CN1CC(F)(F)CCC1=O)C2 [Ex. 72, 1-{(2S)-2-amino-4-[2-ethyl-4-(trifluoromethyl)-5,8-dihydropyrido[3,4-d]pyrimidin-7(6H)-yl]-4-oxobutyl}-5,5-difluoropiperidin-2-one]
7 | 94 nM | C[C@@H]1CN(C[C@@H](N)CC(=O)N2CCn3c(nnc3C(F)(F)F)C2)C(=O)CO1 [Ex. 77, (6R)-4-{(2S)-2-amino-4-oxo-4-[3-(trifluoromethyl)-5,6-dihydro[1,2,4]triazolo[4,3-a]pyrazin-7(8H)-yl]butyl}-6-methylmorpholine-3-one]
8 | 130 nM | C[C@H]1CN(C[C@@H](N)CC(=O)N2CCc3c(nc(-c4ccccc4)nc3C(F)(F)F)C2)C(=O)CO1 [Ex. 23]
9 | 72 nM | C[C@@H]1CCC(=O)N(C[C@@H](N)CC(=O)N2CCc3c(nc(-c4ccc[nH]4)nc3C(F)(F)F)C2)C1 [Ex. 68, (5R)-1-{(2S)-2-amino-4-oxo-4-[2-(1H-pyrrol-2-yl)-4-(trifluoromethyl)-5,8-dihydropyrido[3,4-d]pyrimidin-7(6H)-yl]butyl}-5-methylpiperidin-2-one]
10 | 18 nM | COCCc1nc2c(c(C(F)(F)F)n1)CCN(C(=O)C[C@H](N)CN1C[C@H](C)CCC1=O)C2 [Ex. 52, (5R)-1-{(2S)-2-amino-4-[2-(2-methoxyethyl)-4-(trifluoromethyl)-5,8-dihydropyrido[3,4-d]pyrimidin-7(6H)-yl]-4-oxobutyl}-5-methylpiperidin-2-one]
11 | 127 nM | CC1CC(=O)N(C[C@@H](N)CC(=O)N2CCn3c(nnc3C(F)(F)F)C2)C1 (stereo partly drawn) [Ex. 4, 1-[2S-amino-4-oxo-4-(3-trifluoromethyl-5,6-dihydro-8H-[1,2,4]triazolo[4,3-a]pyrazin-7-yl)-butyl]-4-methyl-pyrrolidin-2-one]
12 | 712 nM | N[C@@H](CC(=O)N1CCc2c(noc2C(F)(F)F)C1)CN1CCCCC1=O [Ex. 19, 1-[2S-amino-4-oxo-4-(3-trifluoromethyl-4,5-dihydro-7H-isooxazolo[3,4-c]pyridin-6-yl)butyl]-piperidin-2-one]
13 | 8850 nM | C[C@H]1CCC(=O)N(C[C@@H](N)CC(=O)N2CCc3c(nc(C(F)(F)F)nc3C(F)(F)F)C2)C1 [Ex. 80]
14 | 38 nM | C[C@H]1CN(C[C@@H](N)CC(=O)N2CCc3c(nc(C(F)(F)F)nc3C(F)(F)F)C2)C(=O)CO1 [Ex. 84]
15 | 55 nM | N[C@@H](CC(=O)N1CCc2c(nc(-c3ccc[nH]3)nc2C(F)(F)F)C1)CN1CC(F)(F)CCC1=O [Ex. 69, 1-{(2S)-2-amino-4-oxo-4-[2-(1H-pyrrol-2-yl)-4-(trifluoromethyl)-5,8-dihydropyrido[3,4-d]pyrimidin-7(6H)-yl]butyl}-5,5-difluoropiperidin-2-one]
16 | 28 nM | C[C@H]1CN(C[C@@H](N)CC(=O)N2CCc3c(nc(C4CC4)nc3C(F)(F)F)C2)C(=O)CO1 [Ex. 27, (6S)-4-{(2S)-2-amino-4-[2-cyclopropyl-4-(trifluoromethyl)-5,8-dihydropyrido[3,4-d]pyrimidin-7(6H)-yl]-4-oxobutyl}-6-methylmorpholine-3-one]
17 | 55 nM | C[C@H]1CN(C[C@@H](N)CC(=O)N2CCc3c(nc(C(C)(C)C)nc3C(F)(F)F)C2)C(=O)CO1 [Ex. 93]
18 | 30 nM | Cc1nc2c(c(C(F)(F)F)n1)CCN(C(=O)C[C@H](N)CN1C[C@H](C)OCC1=O)C2 [Ex. 86]
19 | 22 nM | C[C@H]1CN(C[C@@H](N)CC(=O)N2CCc3sc(-c4ccc(F)cc4)nc3C2)C(=O)CO1 [Ex. 45, (6S)-4-{(2S)-2-amino-4-oxo-4-[2-(4-fluorophenyl)6,7-dihydro[1,3]thiazolo[4,5,c]pyridin-5(4H)-yl]butyl}-6-methylmorpholine-3-one]
20 | 59 nM | CC1CC(=O)N(C[C@@H](N)CC(=O)N2CCc3c(nc(C(F)(F)F)nc3C(F)(F)F)C2)C1 (stereo partly drawn) [Ex. 105, 1-{(2S)-2-amino-4-[2,4-bis(trifluoromethyl)-5,8-dihydropyrido[3,4-d]pyrimidin-7(6H)-yl]-4-oxobutyl}-4-methyloxopyrrolidin-2-one]
21 | 25 nM | C[C@H]1CN(C[C@@H](N)CC(=O)N2CCc3c(nc(-c4ccc(F)cc4)nc3C(F)(F)F)C2)C(=O)CO1 [Ex. 31]
22 | 30 nM | C[C@@H]1CCC(=O)N(C[C@@H](N)CC(=O)N2CCc3c(nc(CC4CC4)nc3C(F)(F)F)C2)C1 [Ex. 54, (5R)-1-{(2S)-2-amino-4-[2-(cyclopropylmethyl)-4-(trifluoromethyl)-5,8-dihydropyrido[3,4-d]pyrimidin-7(6H)-yl]-4-oxobutyl}-5-methylpiperidin-2-one]
23 | 61 nM | C[C@@H]1CCC(=O)N(C[C@@H](N)CC(=O)N2CCc3c(nc(-c4ccsc4)nc3C(F)(F)F)C2)C1 [Ex. 60, (5R)-1-{(2S)-2-amino-4-oxo-4-[2-(3-thienyl)-4-(trifluoromethyl)-5,8-dihydropyrido[3,4-d]pyrimidin-7(6H)-yl]butyl}-5-methylpiperidin-2-one]
24 | 385 nM | C[C@H]1CCC(=O)N(C[C@@H](N)CC(=O)N2CCn3c(nnc3C(F)(F)F)C2)C1 [Ex. 79, (5S)-1-{(2S)-2-amino-4-oxo-4-[3-(trifluoromethyl)-5,6-dihydro[1,2,4]triazolo[4,3-a]pyrazin-7(8H)-yl]butyl}-5-methylpiperidin-2-one]
25 | 24 nM | C[C@@H]1CCC(=O)N(C[C@@H](N)CC(=O)N2CCc3c(ncnc3C(F)(F)F)C2)C1 [Ex. 21]
26 | 36 nM | C[C@@H]1CCC(=O)N(C[C@@H](N)CC(=O)N2CCc3c(nc(-c4ccc(F)c(F)c4)nc3C(F)(F)F)C2)C1 [Ex. 37, (5R)-1-{(2S)-2-amino-4-[2-(3,4-difluorophenyl)-4-(trifluoromethyl)-5,8-dihydropyrido[3,4-d]pyrimidin-7(6H)-yl]-4-oxobutyl}-5-methylpiperidin-2-one]
